Test results: the NIST ThermoML archive (doi:10.1016/j.fluid.2004.09.013)
Numbers after ± are expanded uncertainties.

Conditions: for mass density: Fluid (supercritical or subcritical phases), Vibrating tube method; for vapor or sublimation pressure: Liquid

C/C=C\C [(Z)-2-butene]
Conditions	mass density [kg/m3]
333.22 K, 14991 kPa	598.72 ± 1.3
333.22 K, 19994 kPa	606.12 ± 1.3
333.22 K, 24988 kPa	612.8 ± 1.3
333.22 K, 30003 kPa	618.94 ± 1.4
333.22 K, 34991 kPa	624.59 ± 1.4
333.22 K, 40010 kPa	629.87 ± 1.4
338.22 K, 1174 kPa	565.5 ± 1.1
338.22 K, 4996 kPa	574.54 ± 1.2
338.22 K, 9996 kPa	584.64 ± 1.2
338.22 K, 14984 kPa	593.34 ± 1.2
338.22 K, 19986 kPa	601.06 ± 1.3
338.22 K, 25003 kPa	608.03 ± 1.3
338.22 K, 29995 kPa	614.37 ± 1.4
338.22 K, 34988 kPa	620.2 ± 1.4
338.22 K, 39995 kPa	625.64 ± 1.4
343.22 K, 1261 kPa	558.56 ± 1.1
343.22 K, 4987 kPa	568.03 ± 1.2
343.22 K, 9997 kPa	578.77 ± 1.2
343.22 K, 14987 kPa	587.91 ± 1.2
343.22 K, 19988 kPa	595.98 ± 1.3
343.22 K, 25014 kPa	603.24 ± 1.3
343.22 K, 30005 kPa	609.78 ± 1.4
343.22 K, 34992 kPa	615.82 ± 1.4
343.22 K, 40014 kPa	621.42 ± 1.4
348.22 K, 1356 kPa	551.46 ± 1.1
348.22 K, 4981 kPa	561.37 ± 1.2
348.22 K, 10002 kPa	572.81 ± 1.2
348.22 K, 14996 kPa	582.44 ± 1.2
348.22 K, 19993 kPa	590.86 ± 1.3
348.22 K, 25004 kPa	598.39 ± 1.3
348.22 K, 30012 kPa	605.19 ± 1.4
348.22 K, 34983 kPa	611.41 ± 1.4
348.22 K, 39993 kPa	617.18 ± 1.4
353.22 K, 1456 kPa	544.16 ± 1.1
353.22 K, 5002 kPa	554.62 ± 1.1
353.22 K, 14994 kPa	576.89 ± 1.2
353.22 K, 19998 kPa	585.7 ± 1.3
353.22 K, 24991 kPa	593.51 ± 1.3
353.22 K, 29987 kPa	600.55 ± 1.3
353.22 K, 34994 kPa	606.99 ± 1.4
353.22 K, 40002 kPa	612.94 ± 1.4
353.23 K, 10003 kPa	566.75 ± 1.2
358.22 K, 1569 kPa	536.68 ± 1.1
358.22 K, 4987 kPa	547.6 ± 1.1
358.22 K, 9992 kPa	560.57 ± 1.2
358.22 K, 15002 kPa	571.3 ± 1.2
358.22 K, 19998 kPa	580.5 ± 1.3
358.22 K, 24995 kPa	588.63 ± 1.3
358.22 K, 29992 kPa	595.93 ± 1.3
358.22 K, 34990 kPa	602.57 ± 1.4
358.22 K, 40000 kPa	608.7 ± 1.4
363.23 K, 1690 kPa	528.95 ± 1.1
363.23 K, 4993 kPa	540.42 ± 1.1
363.23 K, 9989 kPa	554.28 ± 1.2
363.23 K, 15000 kPa	565.61 ± 1.2
363.23 K, 19996 kPa	575.23 ± 1.2
363.23 K, 25014 kPa	583.72 ± 1.3
363.23 K, 29996 kPa	591.25 ± 1.3
363.23 K, 34991 kPa	598.13 ± 1.4
363.23 K, 40007 kPa	604.46 ± 1.4
368.22 K, 1794 kPa	520.86 ± 1.1
368.22 K, 4994 kPa	533.05 ± 1.1
368.22 K, 9998 kPa	547.94 ± 1.1
368.22 K, 15001 kPa	559.86 ± 1.2
368.22 K, 20006 kPa	569.97 ± 1.2
368.22 K, 24996 kPa	578.78 ± 1.3
368.22 K, 30000 kPa	586.63 ± 1.3
368.23 K, 35006 kPa	593.73 ± 1.4
368.23 K, 40001 kPa	600.21 ± 1.4
373.23 K, 1956 kPa	512.69 ± 1.1
373.23 K, 5016 kPa	525.44 ± 1.1
373.23 K, 10014 kPa	541.44 ± 1.1
373.23 K, 15017 kPa	554.07 ± 1.2
373.23 K, 20017 kPa	564.64 ± 1.2
373.23 K, 25015 kPa	573.81 ± 1.3
373.23 K, 30004 kPa	581.92 ± 1.3
373.23 K, 35002 kPa	589.24 ± 1.4
373.23 K, 39988 kPa	595.91 ± 1.4
378.23 K, 2103 kPa	504.11 ± 1
378.23 K, 5016 kPa	517.48 ± 1.1
378.23 K, 9997 kPa	534.7 ± 1.1
378.23 K, 15005 kPa	548.12 ± 1.2
378.23 K, 19992 kPa	559.18 ± 1.2
378.23 K, 24999 kPa	568.75 ± 1.3
378.23 K, 29991 kPa	577.18 ± 1.3
378.23 K, 34989 kPa	584.74 ± 1.4
378.23 K, 39985 kPa	591.64 ± 1.4
383.23 K, 2265 kPa	495.17 ± 1
383.23 K, 4994 kPa	509.13 ± 1.1
383.23 K, 9994 kPa	527.89 ± 1.1
383.23 K, 15008 kPa	542.15 ± 1.2
383.23 K, 20012 kPa	553.81 ± 1.2
383.23 K, 24996 kPa	563.74 ± 1.3
383.23 K, 29984 kPa	572.46 ± 1.3
383.23 K, 34981 kPa	580.28 ± 1.4
383.23 K, 40007 kPa	587.41 ± 1.4
388.23 K, 2438 kPa	485.86 ± 1
388.23 K, 4986 kPa	500.47 ± 1.1
388.23 K, 9987 kPa	520.91 ± 1.1
388.23 K, 14983 kPa	536.02 ± 1.2
388.23 K, 19990 kPa	548.28 ± 1.2
388.23 K, 24990 kPa	558.67 ± 1.3
388.23 K, 30000 kPa	567.77 ± 1.3
388.23 K, 34996 kPa	575.85 ± 1.4
388.23 K, 39999 kPa	583.17 ± 1.4
393.23 K, 2620 kPa	476.09 ± 0.99
393.23 K, 4998 kPa	491.49 ± 1

Conditions	vapor or sublimation pressure [kPa]
335.93 K	625.67 ± 4.1
344.91 K	767.01 ± 5.7
345.17 K	778.59 ± 5.8
353.84 K	949.22 ± 6.1
364.75 K	1196.6 ± 7.6
367.83 K	1274.3 ± 8.2
376.36 K	1508.8 ± 9.6
380.95 K	1643.2 ± 10
382.47 K	1703.7 ± 11
390.94 K	1988 ± 13
